Results reported in the supplement of paper PMC5908809.

Experiments:
[1] = system: normal NK cells expanded with K562-aAPC; assay: percent inhibition of viability; higher = more inhibition; conditions: 72 h, IL-2 2.5 ng/mL
Procedure: (§1)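 Drug sensitivity and resistance testing on K562-aAPC-expanded normal NK cells: 5 concentrations (10-fold steps over a 10,000-fold range), 72 h at 37 °C, viability by CellTiter-Glo normalised to DMSO and benzethonium chloride controls; DSS from the fitted curve.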

[2] = system: NK-92 (IL-2 2.5 ng/mL); assay: drug sensitivity score (DSS) (DSS units); higher = more sensitive; extreme values may be limits of the assay; conditions: 72 h
[3] = system: KAI3 (IL-2 2.5 ng/mL); assay: as above; conditions: 72 h
[4] = system: normal primary NK cells, pool 1 (3 donors), resting (IL-2 0 ng/mL); assay: as above; conditions: 72 h
[5] = system: SNK-6 (IL-2 2.5 ng/mL); assay: as above; conditions: 72 h
[6] = system: NKL (IL-2 2.5 ng/mL); assay: as above; conditions: 72 h
[7] = system: YT (IL-2 2.5 ng/mL); assay: as above; conditions: 72 h
[8] = system: DERL-7 (IL-2 2.5 ng/mL); assay: as above; conditions: 72 h
[9] = system: KHYG-1 (IL-2 2.5 ng/mL); assay: as above; conditions: 72 h
[10] = system: normal primary NK cells, pool 3 (3 donors) (IL-2 2.5 ng/mL); assay: as above; conditions: 72 h
[11] = system: IMC-1 (IL-2 20 ng/mL); assay: as above; conditions: 72 h
[12] = system: normal primary NK cells, pool 1 (3 donors) (IL-2 2.5 ng/mL); assay: as above; conditions: 72 h
[13] = system: NK-YS (IL-2 2.5 ng/mL); assay: as above; conditions: 72 h
[14] = system: normal primary NK cells, pool 2 (3 donors) (IL-2 2.5 ng/mL); assay: as above; conditions: 72 h
[15] = system: normal NK cells expanded with K562-aAPC; assay: as above; conditions: 72 h; IL-2 2.5 ng/mL
Procedure: as §1

[16] = system: NK-92 (IL-2 2.5 ng/mL); assay: percent inhibition of viability; higher = more inhibition; conditions: 72 h
[17] = system: KAI3 (IL-2 2.5 ng/mL); assay: as above; conditions: 72 h
[18] = system: normal primary NK cells, pool 1 (3 donors), resting (IL-2 0 ng/mL); assay: as above; conditions: 72 h
[19] = system: SNK-6 (IL-2 2.5 ng/mL); assay: as above; conditions: 72 h
[20] = system: NKL (IL-2 2.5 ng/mL); assay: as above; conditions: 72 h
[21] = system: YT (IL-2 2.5 ng/mL); assay: as above; conditions: 72 h
[22] = system: DERL-7 (IL-2 2.5 ng/mL); assay: as above; conditions: 72 h
[23] = system: KHYG-1 (IL-2 2.5 ng/mL); assay: as above; conditions: 72 h
[24] = system: normal primary NK cells, pool 3 (3 donors) (IL-2 2.5 ng/mL); assay: as above; conditions: 72 h
[25] = system: IMC-1 (IL-2 20 ng/mL); assay: as above; conditions: 72 h
[26] = system: normal primary NK cells, pool 1 (3 donors) (IL-2 2.5 ng/mL); assay: as above; conditions: 72 h
[27] = system: NK-YS (IL-2 2.5 ng/mL); assay: as above; conditions: 72 h
[28] = system: normal primary NK cells, pool 2 (3 donors) (IL-2 2.5 ng/mL); assay: as above; conditions: 72 h

O=C(O)CCCc1ccc(N(CCCl)CCCl)cc1 [Chlorambucil] (max concentration tested 10000 nM)
percent inhibition of viability [%]
Conditions | 1 nM | 10 nM | 100 nM | 1000 nM | 10000 nM
[1] | -0.47 | -10 | -5.18 | -1.85 | 46.2
[16] | -16.2 | -10.6 | -3.93 | -0.43 | 69.5
[17] | -12.3 | 0 | 13 | 21.6 | 84.8
[18] | -14.6 | -7.61 | 2.57 | 19.2 | 88.2
[19] | 9.02 | 25.1 | -1.14 | 10.8 | 92.4
[20] | -13 | -7.71 | -6.04 | 27.6 | 92.1
[21] | -0.58 | -2.33 | -2.72 | -5.92 | 9.19
[22] | -3.58 | -2.26 | -1.57 | 2.26 | 35.3
[23] | -4.53 | -1.14 | -2.99 | -0.01 | 59
[24] | -13.1 | -5.69 | -6.16 | -0.15 | 53
[25] | -7.26 | -1.26 | -5.09 | -7.21 | 20.6
[26] | -5.48 | -9.5 | 0.36 | 3.15 | 70.4
[27] | -6.87 | -0.61 | 3.17 | 13.6 | 84.7
[28] | -11.7 | -6.52 | -4.85 | 1.94 | 69.2

Conditions | drug sensitivity score
[2] | 3.79
[3] | 7.66
[4] | 7.95
[5] | 6.91
[6] | 9.13
[7] | 0
[8] | 2
[9] | 3.19
[10] | 2.81
[11] | 0.4
[12] | 4.31
[13] | 6.96
[14] | 4.06
[15] | 2.23

Cc1cc([C@@H](C)Nc2ccccc2C(=O)O)c2nc(N3CCOCC3)cc(=O)n2c1 [AZD-6482] (max concentration tested 2500 nM)
percent inhibition of viability [%]
Conditions | 0.25 nM | 2.5 nM | 25 nM | 250 nM | 2500 nM
[1] | -0.89 | -3.51 | 0.58 | 12.4 | 16.6
[16] | -8.01 | -6.53 | 4.21 | 8.86 | 41.9
[17] | -5.85 | -0.65 | -3.24 | 1.82 | 7.93
[18] | 1.92 | -14.9 | -3.13 | -1.54 | 14
[19] | 17.7 | 22.5 | 28.9 | 18.4 | 9.67
[20] | -13.3 | 2.45 | -1.09 | 6.43 | -3.2
[21] | 2.09 | 3.67 | 7.43 | 14.2 | 28.4
[22] | -4.2 | -4.4 | 3.19 | 2.6 | 17
[23] | -0.9 | 1.99 | 2.56 | 6.11 | 8.71
[24] | -9.49 | -6.79 | 13.8 | -3.71 | 13
[25] | 1.39 | 3.21 | 2.72 | 3.93 | -5.9
[26] | -3.99 | -0.34 | 5.64 | 2.68 | 19.6
[27] | -5.33 | -1.23 | -3.08 | 0.81 | 7.94
[28] | -5.18 | 0.99 | 18.9 | 5.04 | 17.1

Conditions | drug sensitivity score
[2] | 3.55
[3] | 0
[4] | 0.12
[5] | 0.11
[6] | 0
[7] | 2.58
[8] | 0.68
[9] | 0
[10] | 0.05
[11] | 0
[12] | 0.92
[13] | 0
[14] | 1.26
[15] | 1.31
